Patent publication US4539208A, “Combination of thienamycin-type antibiotics with dipeptidase inhibitors” (Merck & Co., Inc., priority 1981, dated 1985)

target: T1, renal dipeptidase (E.C.3.4.13.11) (Sus scrofa, UniProt P22412); assay: Inhibition of GDP (glycyldehydrophenylalanine) hydrolysis by solubilized renal dipeptidase; type: biochemical, hog (pig) kidney; conditions: not given
T1 construct: solubilized preparation of dipeptidase isolated from hog kidneys; from tissue; host or cells: hog (pig) kidney
T1 sequence (P22412 17-409): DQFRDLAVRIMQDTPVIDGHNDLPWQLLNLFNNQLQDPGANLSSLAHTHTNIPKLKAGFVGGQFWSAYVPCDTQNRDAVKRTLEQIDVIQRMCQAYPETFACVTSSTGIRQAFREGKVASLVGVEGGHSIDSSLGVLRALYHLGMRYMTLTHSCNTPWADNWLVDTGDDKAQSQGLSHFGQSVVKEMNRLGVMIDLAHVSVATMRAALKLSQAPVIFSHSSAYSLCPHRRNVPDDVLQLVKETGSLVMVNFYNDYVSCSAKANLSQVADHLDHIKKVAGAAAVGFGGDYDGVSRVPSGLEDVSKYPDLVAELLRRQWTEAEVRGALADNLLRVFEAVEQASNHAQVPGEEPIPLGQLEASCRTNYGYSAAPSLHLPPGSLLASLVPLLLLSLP
Procedure: This measured the ability of compounds to inhibit hydrolysis of glycyldehydrophenylalanine (GDP) by a solubilized preparation of dipeptidase isolated from hog kidneys. The procedure is as follows: to a 1 ml. system containing 50 mM "MOPS" (3-(N-morpholino)propanesulfonic acid) buffer, pH 7.1, is added 5 μg of lyophilized enzyme, and the test compound at a final concentration of 0.1 mM. After a five minute incubation at 37° C., GDP is added to a final concentration of 0.05 mM. Incubation is continued for 10 minutes, at 37° C. and hydrolysis of GDP is measured by the change in optical density with time at 275 nm. Inhibition of the enzyme is gauged by comparison to a standard run containing no inhibitor and is expressed as the inhibitor binding constant, Ki.
A 1 ml. system of 50 mM "MOPS" buffer, pH 7.1, is used. To this is added 5 μg of the pig renal enzyme and an amount of the test compound to bring its final concentration to 0.1 mM. After a five minute incubation at 37° C., an amount of GDP is added to bring its final concentration to 0.05 mM. The system is again incubated for 10 minutes, at 37° C. Hydrolysis of GDP is measured by its change in optical density with time at 275 nm. Inhibition of the enzyme is gauged by comparison to a standard run containing no inhibitor and is presented as percent inhibition.

| SMILES | Ki [nM] |
| --- | --- |
| CCCCC/C=C(\NC(=O)C1CC1(Cl)Cl)C(=O)O (stereo not shown) [Compound 12] | 59 |
| CCCCCC/C=C(\NC(=O)C1CC1(C)C)C(=O)O (stereo not shown) [Compound 56] | 149 |
| C/C=C(\NC(=O)CCCCC)C(=O)O [Compound 28, Z-2-hexanamido-2-butenoic acid] | 39000 |
| CCCCCCC/C=C(\NC(=O)C1CC1(C)C)C(=O)O (stereo not shown) [Compound 57] | 92 |
| C/C=C(\NC(=O)CCCCCl)C(=O)O [Compound 36, Z-2-(5-chlorovaleramido)-2-butenoic acid] | 20000 |
| CC1(C)CC1C(=O)N/C(=C\CCC(=O)O)C(=O)O (stereo not shown) [Compound 51] | 145 |
| C/C=C(\NC(=O)C1CC1)C(=O)O [Compound 10, Z-2-cyclopropylcarboxamido-2-butenoic acid] | 9000 |
| CC1(C)CC1C(=O)N/C(=C\CC1CCCO1)C(=O)O (stereo not shown) [Compound 65] | 390 |
| CN(C)C(=N)NCCCCC/C=C(\NC(=O)C1CC1(C)C)C(=O)O (stereo not shown) [Compound 16] | 890 |
| CC1(C)CC1C(=O)N/C(=C\Cc1ccccc1)C(=O)O (stereo not shown) [Compound 59] | 440 |
| CC(C)/C=C(\NC(=O)C1CC1(C)C)C(=O)O (stereo not shown) [Compound 41] | 1600 |

same assay, conditions: 10^-4 M inhibitor; GDP 0.05 mM; pH 7.1; 37° C.

| SMILES | inhibition at 100 µM [%] | % Inhibition at 10^-4 M [%] |
| --- | --- | --- |
| C/C=C(\NC(=O)CCCCCCC)C(=O)O [Compound 19, Z-2-octanamido-2-butenoic acid] | 72 | – |
| C/C=C(\NC(=O)C1CC1(C)C(C)C)C(=O)O (stereo not shown) [Compound 44] | 95 | – |
| C/C=C(\NC(=O)C(CC)CCCC)C(=O)O (stereo not shown) [Compound 30, Z-2-(2-Ethylhexanamido)-2-butenoic acid] | 33 | – |
| CC/C=C(\NC(=O)CC(C)C)C(=O)O [Compound 4] | 87 | – |
| CCCCCC/C=C(\NC(=O)C1CC1(C)C)C(=O)O (stereo not shown) [Compound 56] | 98 | – |
| C/C=C(\NC(=O)C1CCC1)C(=O)O [Compound 8] | 80 | – |
| CCCCCCCCCC/C=C(\NC(=O)C1CC1(C)C)C(=O)O (stereo not shown) [Compound 58] | 96 | – |
| C/C=C(\NC(=O)CC(C)C)C(=O)O [Compound 7, Z-2-isovaleramido-2-butenoic acid] | 91 | – |
| C/C=C(\NC(=O)CCCCC)C(=O)O [Compound 28, Z-2-hexanamido-2-butenoic acid] | 54 | – |
| CCCCCCC/C=C(\NC(=O)C1CC1(C)C)C(=O)O (stereo not shown) [Compound 57] | 99 | – |
| CC(C)CC/C=C(\NC(=O)C1CC1(C)C)C(=O)O (stereo not shown) [Compound 63] | 98 | – |
| C/C=C(\NC(=O)CCCCCl)C(=O)O [Compound 36, Z-2-(5-chlorovaleramido)-2-butenoic acid] | 64 | – |
| CC1(C)CC1C(=O)N/C(=C\CCc1ccccc1)C(=O)O (stereo not shown) [Compound 53] | 96 | – |
| C/C=C(\NC(=O)CCCc1ccccc1)C(=O)O [Compound 37] | 72 | – |
| C/C=C(\NC(=O)CC(C)CC)C(=O)O (stereo not shown) [Compound 11] | 82 | – |
| C/C=C(\NC(=O)C1CC1C(C)(C)C)C(=O)O (stereo not shown) [Compound 38] | 90 | – |
| C/C=C(\NC(=O)C1CC1C)C(=O)O (stereo not shown) [Compound 3] | 92 | – |
| C/C=C(\NC(=O)C1CC1(CC)CC)C(=O)O (stereo not shown) [Compound 42] | 98 | – |
| C/C=C(\NC(=O)C1CC1(C)CC)C(=O)O (stereo not shown) [Compound 40] | 100 | – |

| SMILES | inhibition at 100 µM [%] | % Inhibition at 10^-4 M [%] |
| --- | --- | --- |
| CCCC/C=C(\NC(=O)C1CC1(C)C)C(=O)O (stereo not shown) [Compound 49] | 100 | – |
| CC1(C)CC1C(=O)N/C(=C\CC1CCCCC1)C(=O)O (stereo not shown) [Compound 52] | 100 | – |
| C/C=C(\NC(=O)C1C(C)C1C)C(=O)O (stereo not shown) [Compound 6] | 83 | – |
| CCCCC/C=C(\NC(=O)CC(C)C)C(=O)O [Compound 39, Z-2-isovaleramido-2-octenoic acid] | 95 | – |
| CC1(C)CC1C(=O)N/C(=C\CCS(C)(=O)=O)C(=O)O (stereo not shown) [Compound 55] | 96 | – |
| C/C=C(\NC(=O)CCC1CCCCC1)C(=O)O [Compound 27] | 54 | – |
| CC1(C)CC1C(=O)N/C(=C\CCC(=O)O)C(=O)O (stereo not shown) [Compound 51] | 98 | – |
| C/C=C(\NC(=O)C(CCC)CCC)C(=O)O [Compound 31, Z-2-di-n-propylacetamido-2-butenoic acid] | 13 | – |
| C/C=C(\NC(=O)CCCCCC)C(=O)O [Compound 29] | 49 | – |
| C/C=C(\NC(=O)CCC1CCCC1)C(=O)O [Compound 26] | 56 | – |
| C/C=C(\NC(=O)CC1CCC1)C(=O)O [Compound 9] | 83 | – |
| C/C=C(\NC(=O)C1CC1)C(=O)O [Compound 10, Z-2-cyclopropylcarboxamido-2-butenoic acid] | 97 | – |
| CCC/C=C(\NC(=O)C1CC1(C)C)C(=O)O (stereo not shown) [Compound 47] | 98 | – |
| C/C=C(\NC(=O)CCCCC(C)C)C(=O)O [Compound 25, Z-2-(6-methylheptanamido)-2-butenoic acid] | 57 | – |
| C/C=C(\NC(=O)C1CCCC1)C(=O)O [Compound 24] | 59 | – |
| O=C(O)CC/C=C(\NC(=O)C1CC1)C(=O)O [Compound 33] | 90 | – |
| C/C=C(\NC(=O)CCCCCBr)C(=O)O [Compound 35] | 70 | – |
| C/C=C(\NC(=O)CC1CC1)C(=O)O [Compound 22] | 64 | – |
| C/C=C(\NC(=O)CC(C)(C)C)C(=O)O [Compound 18, Z-2-t-butylacetamido-2-butenoic acid] | 75 | – |

| SMILES | inhibition at 100 µM [%] | % Inhibition at 10^-4 M [%] |
| --- | --- | --- |
| CC1(C)CC1C(=O)N/C(=C\Cc1ccccc1)C(=O)O (stereo not shown) [Compound 59] | 98 | – |
| CSCC/C=C(\NC(=O)C1CC1(C)C)C(=O)O (stereo not shown) [Compound 54] | 99 | – |
| C/C=C(\NC(=O)C1CC1(C)C)C(=O)O (single isomer, unassigned; (+)) [Compound 2a, (+)-Z-2-(2,2-dimethylcyclopropanecarboxamido)-2-butenoic acid] | 100 | – |
| C/C=C(\NC(=O)CC(C)CCOC)C(=O)O (stereo not shown) [Compound 34] | 88 | – |
| C/C=C(\NC(=O)CCCC)C(=O)O [Compound 23, Z-2-valeramido-2-butenoic acid] | 64 | – |
| C/C=C(\NC(=O)C(C)C)C(=O)O [Compound 32] | 31 | – |
| CC/C=C(\NC(=O)C1CC1(C)C)C(=O)O (stereo not shown) [Compound 45] | 98 | – |
| C/C=C(\NC(=O)CCC)C(=O)O [Compound 20, Z-2-butyramido-2-butenoic acid] | 69 | – |
| CC(C)/C=C(\NC(=O)C1CC1(C)C)C(=O)O (stereo not shown) [Compound 41] | 96 | – |
| CCCCC/C=C(\NC(=O)C1CC1(C)C)C(=O)O (stereo not shown) [Compound 50] | 100 | – |
| C/C=C(\NC(=O)C1CC1(C)C)C(=O)O (racemic) [Compound 2, Z-2-(2,2-dimethylcyclopropanecarboxamido)-2-butenoic acid] | 98 | – |
| CC1(C)CC1C(=O)N/C(=C\c1ccccc1)C(=O)O (stereo not shown) [Compound 46] | 100 | – |
| C/C=C(\NC(=O)CCCC1CCCCC1)C(=O)O [Compound 21] | 68 | – |
| C/C=C(\NC(=O)C1CC1CC)C(=O)O (stereo not shown) [Compound 43] | 96 | – |
| C/C=C(\NC(=O)CC(C)CC(C)(C)C)C(=O)O (stereo not shown) [Compound 5] | 81 | – |
| CC(C)C/C=C(\NC(=O)C1CC1(C)C)C(=O)O (stereo not shown) [Compound 48] | 97 | – |
| CC1(C)CC1C(=O)N/C(=C\CCCC(=O)O)C(=O)O (racemic) [Compound 64] | 99 | – |
| CC/C=C(\NC(=O)C1CC1(C)C)C(=O)O (stereo not shown) [Compound 1] | – | 98 |
| COCC/C=C(\NC(=O)C1CC1(C)C)C(=O)O (stereo not shown) [Compound 61] | 98 | – |

same assay, conditions: racemate resolved; dextrorotatory isomer has S-configuration

| SMILES | activity of resolved isomers |
| --- | --- |
| CCCCC/C=C(\NC(=O)C1CC1(C)C)C(=O)O (racemic) [Z-2-(2,2-dimethylcyclopropanecarboxamido)-2-octenoic acid] | The activity resides in the dextrorotatory isomer |

tested on: Staphalococcus aureus; assay: Systemic efficacy of thienamycin with co-administered inhibitor, Staphylococcus aureus infection in mouse; type: in vivo; conditions: coadministered with thienamycin

| SMILES | enhancement of systemic antibacterial activity of thienamycin |
| --- | --- |
| C/C=C(\NC(=O)CC(C)C)C(=O)O [Compound 7, Z-2-isovaleramido-2-butenoic acid] | enhanced approximately three-fold |
